In patent US5141931A, “5-Quinolinylpyridinones, cardiotonic compositions and methods” (Sterling Winthrop Inc., priority 1991, dated 1992):

Tests used:
[1] = target: Phosphodiesterase III (PDE III); assay: Phosphodiesterase III Inhibition; type: biochemical, mongrel dogs (thoracic aorta); conditions: dog thoracic aorta PDE III; substrate concentration 1 μM; triplicate
Description: Procedure 1 --Phosphodiesterase III Inhibition
Phosphodiesterase III (PDE III) was obtained by a slight modification of the methods of Thompson et al. [Advances in Cyclic Nucleotide Research vol. […] Thoracic aorta from mongrel dogs was minced with fine scissors and homogenized in 10 volumes of a buffer containing 10 mM tris acetate, pH 7.5, 2 mM magnesium chloride, 1mM dithiothreitol and 2000 units per mL of aprotinin. This and subsequent procedures were performed at 0-4°. The tissue was homogenized, the homogenate was sonicated and the resultant homogenate was centrifuged at 48,000 g for 30 minutes. The resulting supernatant fraction was applied to a diethylaminoethyl ether (DEAE) cellulose column that had been equilibrated with 35 or 70 mM sodium acetate containing 1 mM dithiothreitol at pH 6.5. After application of the sample, the column was washed with 2-3 bed volumes of the equilibration buffer and the PDE isozyme was eluted from the column using a continuous sodium acetate gradient to 1 molar. Fractions of approximately 5 mL were collected and assayed for cAMP and cGMP PDE activity at substrate concentrations of 1 μM. Appropriate fractions corresponding to peak three were pooled and dialyzed against 70 mM sodium acetate, 0.5 mM dithiothreitol for at least 20 hours.

mean arterial pressure = assay: In vivo Vasodilation in the Rat; parameters: species or system normotensive male Sprague-Dawley rats; conditions: 0.4 mg/kg, orally by gavage
Description: Procedure 2--In vivo Vasodilation in the Rat
Normotensive male Sprague-Dawley rats of 325-425 g were anesthetized with sodium pentobarbital and an arterial catheter was placed in the abdominal aorta via the femoral artery. The catheter was tunneled subcutaneously, exteriorized at the nape of the neck, filled with heparinized saline and sealed with a stainless steel plug. The wounds were sutured and a suspension of penicillin G benzathine and penicillin G procaine was administered subcutaneously. All animals were allowed at least two days recovery prior to testing.
Rats were fasted 17 hours then placed into individual plexiglass boxes. The arterial catheter was connected to a Statham pressure transducer, positioned at the heart level, and the arterial pressure signal was recorded on a polygraph. The animals remained undisturbed for at least one hour to adapt to the testing environment. After the adaptation period, three baseline arterial pressure and heart rate measurements were taken at 15-minute intervals prior to the administration of the test drug. […] Arterial pressure and heart rate were measured at 15-minute intervals for the first hour and 30-minute intervals for the next four hours following the administration of drugs.
The data were analyzed by one-way analysis of variance for repeated measures. […]

Compound	IC50 [1] [nM]	area under the curve for reduction of mean arterial pressure (mean arterial pressure; conscious normotensive rats) [%]	statistical significance of reduction of mean arterial pressure (mean arterial pressure; Student Newman-Keuls test, probability of less than 5%, to the end of the test at six hours)
Cc1[nH]c(=O)c(C#N)cc1-c1ccncc1 [milrinone, reference compound]	500	–	–
Cc1[nH]c(=O)c(C#N)cc1-c1ccc2ncccc2c1 [Example 3, 1,2-Dihydro-6-methyl-2-oxo-5-(6-quinolinyl)-3-pyridinecarbonitrile]	57	75	statistical significance at all times to the end of the test at six hours
